Experimental data as given in patent US20030211076A1, “Compositions and methods for treatment of proliferative disorders” (priority 2003, published 2003).

Experiments:
[1] = test system: human recombinant FGF2 (18 kDa); assay: LO-catalyzed crosslinking of 125I-labeled FGF2, SDS-PAGE and autoradiography; format: biochemical; settings: 5 μg 125I-FGF2 with 4 μg LO, 37° C., 1 h
Method: To determine crosslinking of FGF2 monomers as a result of its oxidation by LO, human recombinant FGF2 (18 kDa) was iodinated and ^1251-labeled FGF2 (5 μg) and was then incubated with 4 μg of LO in 0.1 M sodium borate buffer, pH 8.2 in a final volume of 100 μl, at 37° C. for 1 h. The reaction was quenched by the addition of 100 μM BAPN followed by incubation at 37° C. for 30 min. Aliquots of the incubated reaction mixtures were analyzed by SDS-PAGE (15%) and autoradiography. Lane 1 represents [^125]FGF2; lane 2 represents [^1251]FGF2+LO. The relative electrophoretic mobilities of pre-stained molecular weight standards are indicated under MW.

[2] = molecular target: T1, lysyl oxidase (LO) (Bos taurus, UniProt P33072); assay: LO-dependent H2O2 release, horseradish peroxidase-coupled fluorescence assay (substrate potential for LO); format: biochemical; settings: 55° C. and 37° C.
T1 construct: per mature LO molecule (32 kD); from tissue
T1 sequence (P33072 170-418): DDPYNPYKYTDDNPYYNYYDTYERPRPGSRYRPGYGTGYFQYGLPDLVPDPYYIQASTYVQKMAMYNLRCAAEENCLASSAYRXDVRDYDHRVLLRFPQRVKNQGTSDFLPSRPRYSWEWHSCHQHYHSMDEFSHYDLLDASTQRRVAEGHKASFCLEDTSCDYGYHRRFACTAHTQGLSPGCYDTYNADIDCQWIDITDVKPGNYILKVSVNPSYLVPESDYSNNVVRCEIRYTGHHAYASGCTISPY
Method: The oxidation of a primary amine substrate by LO yields stoichiometric amounts of the corresponding aldehyde, hydrogen peroxide and ammonia, as shown: RCH2NH2+O2+H2O→RCHO+H2O2+NH3 (Kagan, 1986). To assess the substrate potential of FGF2, LO-dependent H2O2 release was monitored in assays using FGF2 as the sole substrate, using both the optimum temperature for LO activity of 55° C. and the physiological temperature of 37° C. (Trackman et al., 1981).
LO reaction with FGF2 as a substrate was assessed by a horseradish peroxidase-coupled fluorescence assay for H2O2 production. Reaction mixtures contained 0.25 mg of sodium homovanillate(HVA), 40 μg of HRP, and FGF2 at doses as indicated below in 0.05 M sodium borate buffer, pH 8.2, in a final volume of 2 ml. Assays were initiated by the addition of LO to reaction mixtures. H2O2 release was continuously monitored at excitation and emission wavelengths of 315 and 425 nm, respectively, at a constant temperature of 55° C. or 37° C., as specified, in the thermostatted cuvette chamber of an SLM Aminco Bowman Series 2 Luminescence Spectrometer. All activity data were corrected for background rates of H2O2 release determined in complete assay mixtures supplemented with 200 μM BAPN, an irreversible inhibitor of LO. In FIG. 4, solid curves represent the time course of H2O2 release at 55° C. in the reaction of 0.16 μM LO with 0.23 (a), 0.45 (b) and 0.9 (c) μM FGF2, respectively. Dotted curve (d) represents the time course of H2O2 release in the reaction of 0.16 μM LO with 0.9 μM FGF2 at 37° C. The same data were obtained from three separate experiments.
Using the fluorometric assay (Trackman et al., 1981) to monitor LO-dependent H2O2 release in vitro, the substrate potential of other growth factors was also assessed. Major members of the FGF family tested included FGF 1, 4, 5, 6, 7 and EGF (note: All factors are human recombinant forms purchased from R & D Systems, Inc., Minneapolis, Minn.).
A human recombinant disulfide-linked dimer of VEGF165 (MW: 42 kDa)(R & D Systems) as a sole substrate was tested by using the standard in vitro LO catalysis assays as described above for FIG. 4 (Trackman et al., 1981). Curves represent the time course of H2O2 release at 55° C. (a) or 37° C. (b) in the reaction of 0.10 μM LO with 0.45 μM VEGF165. All activity data were corrected for background rates of H2O2 release determined in complete assay mixtures supplemented with the same amounts of LO preincubated with 100 μM BAPN for 15 min at 37° C. The same data were obtained from three separate experiments.
The standard in vitro LO catalysis assays as described above for FIG. 4 (Trackman et al., 1981) using human recombinant PDGF-AB (R & D Systems) as a sole substrate was tested. […] In FIG. 19, curves represent the time course of H2O2 release at 55° C. (a) and 37° C. (b) in the reaction of 0.11 μM LO with 0.46 μM PDGF-AB, respectively. All activity data were corrected for background rates of H2O2 release determined in complete assay mixtures supplemented with the same amounts of LO preincubated with 100 μM BAPN for 15 minutes at 37° C. The same data were obtained from three separate experiments.
To analyze the substrate potential of Tat, the standard in vitro LO catalysis assays as described in FIG. 4 (Trackman et al., 1981) was performed at the optimum temperature of 55° C. and at the physiological temperature of 37° C. A recombinant Tat with 9 lysines in a total of 86 amino acids was used as a sole substrate. FIG. 12A represents a dose and temperature-dependent response. Curves represent the time course of H2O2 release at 55° C. (solid) or 37° C. (dotted) in the reaction of 0.10 μM LO with 0.22 (a and d), 0.43 (b and e) and 0.85 (c and f) μM Tat, respectively. All activity data were corrected for background rates of H2O2 release determined in complete assay mixtures supplemented with the same amounts of LO preincubated with 100 μM BAPN for 15 min at 37° C. […]

Compound	crosslinking of FGF2 monomers [1]	effect on H2O2 release when added after the reaction of LO with Tat was initiated ([2]; 100 μM BAPN added at 200 seconds)	inhibition of the reaction of LO with Tat ([2]; LO preincubated with 100 μM BAPN for 5 minutes)
lysyl oxidase [LO]	induced the appearance of covalent dimers, oligomers and higher polymers	–	–
N#CCCN [BAPN, β-Aminopropionitrile, reference compound]	–	failed to block H2O2 release	totally inhibited
